Measured values as given in the supplement of paper PMC12370961.

How the values were obtained:
Assay in all cases: differential drug sensitivity score (dDSS) relative to sarcoma reference cohort mean DSS (DSS units (0-100 scale difference)); higher = more selective sensitivity than reference sarcomas
Settings in all cases: exposure time: 72 h; concentration range: 10-10000 nM
CDS-ZH001-2 = system: CDS-ZH001-2 (patient-derived CIC-DUX4 sarcoma tumoroid)
Protocol: (§1)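 Drug response profiling of patient-derived Ewing sarcoma and CIC::DUX4 sarcoma tumoroid models (or cells tested directly after isolation from the tumor, 'direct'). The DSS is the normalised AUC (0-100); dDSS is the sample DSS minus the mean DSS of a 34-sarcoma reference cohort profiled in the same lab.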

CDS-ZH001 = system: CDS-ZH001 (patient-derived CIC-DUX4 sarcoma tumoroid)
Protocol: as §1

CDS-ZH002 direct = system: CDS-ZH002 direct (CIC-DUX4 sarcoma cells right after isolation)
Protocol: as §1

CDS-ZH002 = system: CDS-ZH002 (patient-derived CIC-DUX4 sarcoma tumoroid)
Protocol: as §1

CDS-ZH003 = system: CDS-ZH003 (patient-derived CIC-DUX4 sarcoma tumoroid)
Protocol: as §1

ES-ZH001 = system: ES-ZH001 (patient-derived Ewing sarcoma tumoroid)
Protocol: as §1

ES-ZH002 = system: ES-ZH002 (patient-derived Ewing sarcoma tumoroid)
Protocol: as §1

ES-ZH004 = system: ES-ZH004 (patient-derived Ewing sarcoma tumoroid)
Protocol: as §1

ES-ZH007 = system: ES-ZH007 (patient-derived Ewing sarcoma tumoroid)
Protocol: as §1

ES-ZH008 = system: ES-ZH008 (patient-derived Ewing sarcoma tumoroid)
Protocol: as §1

ES-ZH009 = system: ES-ZH009 (patient-derived Ewing sarcoma tumoroid)
Protocol: as §1

ES-ZH016 direct = system: ES-ZH016 direct (Ewing sarcoma cells right after isolation)
Protocol: as §1

ES-ZH016 = system: ES-ZH016 (patient-derived Ewing sarcoma tumoroid)
Protocol: as §1

| Compound | differential drug sensitivity score (CDS-ZH001-2) | differential drug sensitivity score (CDS-ZH001) | differential drug sensitivity score (CDS-ZH002 direct) | differential drug sensitivity score (CDS-ZH002) | differential drug sensitivity score (CDS-ZH003) | differential drug sensitivity score (ES-ZH001) | differential drug sensitivity score (ES-ZH002) | differential drug sensitivity score (ES-ZH004) | differential drug sensitivity score (ES-ZH007) | differential drug sensitivity score (ES-ZH008) | differential drug sensitivity score (ES-ZH009) | differential drug sensitivity score (ES-ZH016 direct) | differential drug sensitivity score (ES-ZH016) |
| --- | --- | --- | --- | --- | --- | --- | --- | --- | --- | --- | --- | --- | --- |
| CC(=O)O[C@@]12CO[C@@H]1C[C@H](O)[C@@]1(C)C(=O)[C@H](O)C3=C(C)[C@@H](OC(=O)[C@H](O)[C@@H](NC(=O)OC(C)(C)C)c4ccccc4)C[C@@](O)([C@@H](OC(=O)c4ccccc4)[C@H]21)C3(C)C [Docetaxel] | 6.8 | -0.1 | 2 | -3.2 | -20.9 | 24.4 | 23.8 | 5.9 | 5.3 | 11.4 | 26.8 | 17.1 | 20 |
| COc1cc2nc(N3CCCN(C)CC3)nc(NC3CCN(Cc4ccccc4)CC3)c2cc1OC | 4 | 0.2 | 1.5 | -1.1 | 4 | 0.7 | 0 | 6.4 | 7.4 | 1.2 | -0.4 | 3.9 | -0.1 |
| O=C(Nc1c[nH]nc1-c1nc2ccc(CN3CCOCC3)cc2[nH]1)NC1CC1 [AT9283] | 7 | -1.2 | -0.7 | -3.6 | -2 | 24.4 | 10.8 | 4 | 6.1 | 18.4 | 24.5 | 14.2 | 10.8 |
| CNC(=O)c1cc(Oc2ccc(NC(=O)Nc3ccc(Cl)c(C(F)(F)F)c3)c(F)c2)ccn1 [Regorafenib Monohydrate] | -2.3 | 1.3 | 1.5 | -3 | -3.4 | 11.6 | 13.6 | 5.5 | 0.4 | 8.9 | 5.8 | 1.8 | -1.1 |
| CC[C@H](NC(=O)[C@H](C)NC)C(=O)N1C[C@@H](O)C[C@H]1Cc1c(-c2[nH]c3cc(F)ccc3c2C[C@@H]2C[C@H](O)CN2C(=O)[C@H](CC)NC(=O)[C@H](C)NC)[nH]c2cc(F)ccc12 [Birinapant] | 16.6 | 21.9 | 4.6 | -1.8 | 13 | -0.8 | -0.4 | -2.3 | -0.4 | -0.3 | 5.7 | 4.6 | -1.3 |
| C=C(F)C(=O)N1CCN(c2nc(OC[C@@H]3CCCN3C)nc3c2CCN(c2cccc4cccc(Cl)c24)C3)C[C@@H]1CC#N [MRTX849] | 0.7 | 4.8 | 0.7 | 1.5 | 3.5 | -0.9 | 1.1 | 0.1 | 2 | 1.6 | 1.8 | -1.7 | -1.7 |
| C[C@]1(O)C[C@@H](c2nc(-c3ccc4ccc(-c5ccccc5)nc4c3)c3c(N)nccn32)C1 [Linsitinib] | 5.7 | 3.8 | -5.9 | -5 | 5.7 | 0.8 | 15.2 | 3.2 | 3 | 4.9 | 3.7 | 3.2 | 6.8 |
| C[C@H](NC(=O)CCC(F)(F)F)C(=O)N[C@@H]1C(=O)N(CCO)c2ncccc2-c2ccccc21 [Crenigacestat] | 0.3 | -2.3 | -0.6 | -0.2 | -2.3 | 5.8 | 13.6 | 5.8 | -2.3 | 6.4 | -2.3 | 1 | -2.3 |
| Cn1nnc2c(C(N)=O)ncn2c1=O [Temozolomide] | 3.5 | 3.6 | 1.1 | 1.4 | 7.1 | 3.2 | 2.1 | -1.7 | -1.3 | -1.3 | 7 | 14.8 | 13.8 |
| CCC(=O)N1CCN(c2ccc(-n3c(=O)ccc4cnc5ccc(-c6cnc7ccccc7c6)cc5c43)cc2C(F)(F)F)CC1 [Torin-1] | 1.9 | 4.9 | -8.4 | -4 | 4.4 | -3.5 | 6.9 | -2.7 | -0.5 | 0.8 | 6.3 | -6.9 | -1.2 |
| Cc1c2oc3c(C)ccc(C(=O)N[C@@H]4C(=O)N[C@H](C(C)C)C(=O)N5CCC[C@H]5C(=O)N(C)CC(=O)N(C)[C@@H](C(C)C)C(=O)O[C@@H]4C)c3nc-2c(C(=O)N[C@@H]2C(=O)N[C@H](C(C)C)C(=O)N3CCC[C@H]3C(=O)N(C)CC(=O)N(C)[C@@H](C(C)C)C(=O)O[C@@H]2C)c(N)c1=O [Dactinomycin] | 11.9 | 12.1 | 11.9 | 11.4 | 12.7 | 9.7 | 11.1 | 7.5 | 8.7 | 12.5 | 12.8 | 9.9 | 11.8 |
| CCCN(CCC)C(=O)C1=Cc2ccc(-c3ccc(C(=O)N4CCCC4)cc3)cc2N=C(N)C1 [Motolimod] | 4.9 | -2 | 2.1 | -1.9 | -3.1 | 1.9 | 1.9 | -3.1 | -2.9 | 0.1 | -1.5 | 0.4 | 0.2 |
| CN(C)C/C=C/C(=O)Nc1cc2c(Nc3ccc(F)c(Cl)c3)ncnc2cc1O[C@H]1CCOC1 [Afatinib] | -3.4 | -4.6 | -4.7 | -4.9 | -4.9 | -3.9 | -2 | -0.3 | -4.2 | -1.4 | -3 | -2.4 | -4.6 |
| Cn1ncnc1[C@H]1c2n[nH]c(=O)c3cc(F)cc(c23)N[C@@H]1c1ccc(F)cc1 [Talazoparib] | 8.2 | -1.8 | -2.2 | -5.9 | 0.3 | 26.5 | 28.8 | 21.6 | 25.9 | 24.9 | 11.3 | 18.1 | 24.4 |
| C[C@]12C=CC(=O)C=C1CC[C@@H]1[C@@H]2C(=O)C[C@@]2(C)[C@H]1CC[C@]2(O)C(=O)CO [Prednisone] | -0.5 | -0.5 | -0.5 | -0.5 | -0.5 | -0.5 | -0.5 | -0.5 | -0.5 | -0.5 | -0.5 | -0.5 | -0.5 |
| Nc1ccccc1NC(=O)c1ccc(CNc2nccc(-c3cccnc3)n2)cc1 [Mocetinostat] | 1.5 | -3.3 | -0.9 | -2.7 | -9 | 0.8 | 2.4 | 8.4 | 2.6 | 7.1 | 1.8 | 7.8 | 1.4 |
| COc1cc2c(Nc3ccc(NC(=O)c4ccccc4)cc3)ncnc2cc1OCCCN1CCOCC1 | 2.9 | 0.8 | 0.1 | -2.2 | -2.2 | 4.9 | 8.1 | 2.2 | 0.4 | -2 | 7.1 | 6.7 | 1.6 |
| CC(C)C[C@H](NC(=O)CNC(=O)c1cc(Cl)ccc1Cl)B(O)O [Ixazomib] | 3.6 | 9.5 | 9.9 | 1.8 | 3.2 | 5.2 | 4.9 | 3.5 | 4.9 | 0.7 | 7.6 | -2.2 | -2.9 |
| CC1(C)CCC(c2ccc(Cl)cc2)=C(CN2CCN(c3ccc(C(=O)NS(=O)(=O)c4ccc(N[C@H](CCN5CCOCC5)CSc5ccccc5)c(S(=O)(=O)C(F)(F)F)c4)cc3)CC2)C1 [Navitoclax] | 2.5 | -2.9 | -5.8 | -7.6 | 0.6 | 6.7 | 17.3 | -3.4 | -7.4 | 10.4 | 4.9 | 13.7 | -6.4 |
| C[C@H]1Oc2cc(cnc2N)-c2c(nn(C)c2C#N)CN(C)C(=O)c2ccc(F)cc21 [Lorlatinib] | 6.9 | 11.6 | 4.2 | -1.4 | 1.5 | -1.4 | 5.9 | -4.3 | -0.9 | -3.5 | -2.4 | -1.1 | 1.2 |
| CC(C)NC[C@@H](C(=O)N1CCN(c2ncnc3c2[C@H](C)C[C@H]3O)CC1)c1ccc(Cl)cc1 [Ipatasertib] | 2 | 7.6 | -3.2 | -0.8 | 8.9 | -3.2 | 10.2 | 3.9 | 1.3 | 6.6 | 2.4 | -3.9 | -0.5 |
| CCN(CCCOc1ccc2c(Nc3cc(CC(=O)Nc4cccc(F)c4)[nH]n3)ncnc2c1)CCOP(=O)(O)O [Barasertib] | 4.6 | -8.9 | -3 | -3 | -8.9 | 32.8 | 26.1 | 10.1 | 4.7 | 17.5 | 27.6 | 23.8 | 22.6 |
| COc1ccc(-c2ccc3c(N4CCOC[C@@H]4C)nc(N4CCOC[C@@H]4C)nc3n2)cc1CO [AZD8055] | 0.8 | 1.6 | -2.1 | -10.9 | 8.6 | 0.8 | 12.1 | 4.9 | 4.7 | 7.6 | 9.6 | -8.5 | 2 |
| CC(C)C[C@H](NC(=O)[C@@H](NC(=O)c1cccc(-c2ccccc2)n1)[C@@H](C)O)B(O)O [Delanzomib] | 4.9 | 5.4 | 6.7 | 1.2 | 1.1 | 7.9 | 9.6 | 2.1 | 5.7 | 5.7 | 5.8 | 2.4 | 0 |
